Columns and labels:
[1] = tested on: NMDA-receptor-ionofor complex of hippocampal pyramidal neurons; test: Aspartate-activated currents in individual pyramidal hippocampal neurons; format: cell-based, white Wistar WAG\GSto rats; conditions: individual pyramidal hippocampal neurons of 15-day aged rats
[2] = Cerebral blood flow in the internal carotid artery system under ACVA model by ischemic and hemorrhagic types; format: in vivo; conditions: rats, intravenous, doses of 3, 30, 50 and 100 mg/kg
neurospecific enolase = test: Experimental treatment of rats with ischemic ACVA: neuronal degradation marker activity; format: in vivo; conditions: 10 mg/kg once a day for 96 hours of ischemia
Excerpt: This evidences about the appropriateness of the use of the pharmaceutical compositions for parenteral use comprising the active substance 1-adamantylethyloxy-3-morpholino-2-propanol or pharmaceutically acceptable salts thereof for treatment and prevention of ischemic brain lesions after thrombolysis, stenting, balloon angioplasty, atheroctomy and removal of aneurysms in the internal carotid and vertebral arteries system.

[3] = Experimental treatment of rats with ischemic ACVA: endothelial dysfunction and nitrosating stress; format: in vivo; conditions: 20 mg/kg once a day for 96 hours of ischemia
Excerpt: This provides the basis of its use for treatment and prevention of ischemic brain lesions after thrombolysis, stenting, balloon angioplasty, atheroctomy and removal of aneurysms in the internal carotid and vertebral arteries system.

OC(COCCC12CC3CC(CC(C3)C1)C2)CN1CCOCC1 (stereo not drawn) [1-adamantylethyloxy-3-morpholino-2-propanol]
NMDA-receptors blocking/unblocking [1]: very fast
modulation of aspartate-activated currents (action on NMDA-receptor-ionofor complex) [1]: exhibits properties of activator NMDA-receptor-ionofor complex
cerebral blood flow in the internal carotid artery system [2]: stimulates the cerebral blood flow
neuronal degradation marker activity (neurospecific enolase) (neurospecific enolase): promoted the reduction
endothelial dysfunction manifestations [3]: promoted the decrease
nitrosating stress manifestations [3]: promoted the decrease
